Results as given in publication PMC5190008, “BO-1055, a novel DNA cross-linking agent with remarkable low myelotoxicity shows potent activity in sarcoma models” (Oncotarget, 2016).

Legend:
[1] = tested on: benign cells (mesenchymal stromal cells, fetal lung fibroblasts and myofibroblasts, hematopoietic progenitor cells, endothelial cells, MS-5); assay: Alamar blue cytotoxicity in benign cells; assay type: cell-based, human, murine; conditions: up to 10 μM, most of the tested cells
Method: We also examined the effect of BO-1055 in inhibiting the cell growth of different types of benign cells including human mesenchymal stromal cells, fetal lung fibroblasts and myofibroblasts, hematopoietic progenitor cells, bone marrow derived endothelial cells and human umbilical vein endothelial cells and murine mesenchymal stromal cells, MS-5 (murine).
AlamarBlue® assay (Invitrogen, Carlsbad, CA, USA) was performed to evaluate anti-proliferative activity of the drugs in cell lines and primary cells. Cells were plated in 96-well plates ([…] in 200 μL of medium). After 12 h, one of the previously mentioned drugs was added to each well at the specified concentration and incubated for 72 h. At the end of the incubation period, 20 μL of stock solution (0.312 mg/mL) of the Alamar Blue was added to each well. The absorbance was measured using the Synergy H1 hybrid multi-mode microplate reader (BioTek, USA). The drug effect was quantified as the percentage of control absorbance at 540 nm and 585 nm. Optical density was determined for 3 replicates per treatment condition and cell proliferation in drug-treated cells was normalized to their respective controls. All experiments were performed in triplicate.

[2] = tested on: patient derived Ewing sarcoma xenografts; assay: Cyclophosphamide resistant patient-derived Ewing sarcoma xenografts; assay type: in vivo, NSG mice; conditions: 30mg/kg/dose i.v. q2d x 4, tumors progressed to 500mm^3 after MTD cyclophosphamide
Method: Patient derived xenografts were established from Ewing sarcoma patients who progressed through first line chemotherapy that included cyclophosphamide, doxorubicin, vincristine, ifosfamide and etoposide (PS3). When these Ewing sarcoma xenografts (n = 10) reached 100mm^3, they were randomized to control and treatment groups.
All mouse experiments were performed at the animal core facility at MSKCC under an approved protocol following the IACUC guidelines. Five to seven-week-old NOD/SCID IL2R gamma null (NSG) mice (bred at the Mouse Genetics Core Facility, MSKCC) were used for in vivo experiments. All mouse experiments were done following the IACUC guidelines at the animal facility at MSKCC. Tumors were induced using 10^6 A673 cells or A204 cells in 0.2ml 1:1 cellular medium, Matrigel matrix (BD Bioscience, Bedford, MA) and injected subcutaneously (s.q) into the right flank. The tumors were measured every 3 d with a caliper, and the diameters were recorded. Tumor volume was calculated by the formula a^2 b/2 where ‘a’ is the smallest and ‘b’ is the largest diameter. When the tumors reached 100mm^3, we randomized mice into control and drug treatment groups. Treatment groups received BO-1055 by tail vein injection at 10mg/kg, 20mg/kg and 30mg/kg q2d x 5 doses for mice bearing A673 xenografts. BO-1055 was given at 30mg/kg q2d x 5 doses for mice bearing A204 xenografts. […]

A673 xenografts = A673 xenografts in NSG mice; assay type: in vivo; conditions: 10mg/kg
Method: All mouse experiments were performed at the animal core facility at MSKCC under an approved protocol following the IACUC guidelines. Five to seven-week-old NOD/SCID IL2R gamma null (NSG) mice (bred at the Mouse Genetics Core Facility, MSKCC) were used for in vivo experiments. All mouse experiments were done following the IACUC guidelines at the animal facility at MSKCC. Tumors were induced using 10^6 A673 cells or A204 cells in 0.2ml 1:1 cellular medium, Matrigel matrix (BD Bioscience, Bedford, MA) and injected subcutaneously (s.q) into the right flank. The tumors were measured every 3 d with a caliper, and the diameters were recorded. Tumor volume was calculated by the formula a^2 b/2 where ‘a’ is the smallest and ‘b’ is the largest diameter. When the tumors reached 100mm^3, we randomized mice into control and drug treatment groups. Treatment groups received BO-1055 by tail vein injection at 10mg/kg, 20mg/kg and 30mg/kg q2d x 5 doses for mice bearing A673 xenografts. BO-1055 was given at 30mg/kg q2d x 5 doses for mice bearing A204 xenografts. De-identified patient tumor tissues were obtained in accordance with and approval from the MSKCC Institutional Review Board (IRB). Appropriate written consent and assent were obtained from the patients prior to sample collection. Patient derived xenografts were developed in NSG mice (second passage) from a patient with relapsed Ewing sarcoma, who was treated with two alkylating agents- cyclophosphamide and ifosfamide as part of a multi-agent chemotherapy prior to relapse. When the tumors reached 100mm^2, we randomized mice into control and drug treatment groups. Mice in the control groups received PBS injections while mice in the drug treatment group received the maximum tolerated dose (MTD) of cyclophosphamide 70mg/kg i.p. q2d x 3 (shown by shorter arrows) (Figure 5D). Tumor growth was not inhibited in the cyclophosphamide treated mice. When the tumors reached a size greater than 500mm^3, we started treatment with BO-1055 at a dose of 30mg/kg i.v. q2d x 4 doses (shown by longer arrows in Figure 4F). […]

A673 cells = assay: Cell cycle analysis (propidium iodide); assay type: cell-based, human; conditions: A673, prominent at 12-24h of exposure
Method: (§1) Cell viability and apoptosis were determined using 7-AAD (BD Pharmingen, San Diego, CA) and Annexin V-APC (BD Pharmingen, San Diego, CA) staining according to the instructions provided by the manufacturer and as previously published. Cell cycle fractions were determined by propidium iodide nuclear staining. Briefly, cells were harvested, washed in PBS, fixed with 70% ethanol, and incubated with propidium iodide/RNase buffer (BD Biosciences, San Diego, CA) for 15 minutes at room temperature. Data was collected on BD LSR Fortessa fluorescence-activated cell analyzer using BD FACS Diva software and analyzed using FlowJo version 9.6 software (Tree Star, Inc. Ashland, OR). Cell cycle analysis was done by applying the Dean/Jett/Fox cell cycle model using FlowJo software.

A204 cells = assay: Cell cycle analysis (propidium iodide); assay type: cell-based, human; conditions: A204, prominent at 12-24h of exposure
Method: as §1

γH2AX in A673 cells = assay: γ-H2AX expression by flow cytometry; assay type: cell-based, human; conditions: A673 compared to hMSC and cord blood CD34+ cells, 3h
Method: Staining of γ-H2AX antigen was carried out following the manufacturer's protocol. Briefly, human sarcoma cells and human mesenchymal stem cells were treated with various concentrations of BO-1055 at 37°C. At 3h, the cultures were washed with 1 ml of cold PBS three times, detached with 0.05% trypsin, and cells were pelleted. The pelleted cells were resuspended with 0.2 ml Cytofix/Cytoperm solution (BD Bioscience), incubated at 4°C for 20 minutes, and then washed with 1 ml cold Perm/Wash solution (BD Bioscience) three times. After anti-human γ-H2AX antibody (BD Bioscience) staining, the specimens were subjected to flow cytometric analysis via a Calibur flow instrument (BD Bioscience).

[3] = 20mg/kg and 30mg/kg/dose q2d x 5

## CN(C)CCNC(=O)c1cccc(NC(=O)Nc2ccc(N(CCCl)CCCl)cc2)c1 [BO-1055]
[1]
  cytotoxicity against benign cells: minimal to no cytotoxicity
[2]
  tumor response: tumor regression
A673 xenografts; [3]
  body weight: no significant decrease in body weight
  survival: prolonged survival
A673 xenografts; 20mg/kg and 30mg/kg/dose q2d x 5, tail vein
  tumor growth: inhibition of tumor growth
A673 cells
  cell cycle effect: concentration-dependent accumulation of cells in the G2/M phase
A204 cells
  cell cycle effect: concentration-dependent accumulation of cells in the G2/M phase
γH2AX in A673 cells
  γH2AX level: significantly elevated
